The values that follow come from ChEMBL document CHEMBL5108088, “N-Methylamide-structured SB366791 derivatives with high TRPV1 antagonistic activity: toward PET radiotracers to visualize TRPV1” (RSC Med Chem, 2022).

The target of data set [1] is Transient receptor potential cation channel subfamily V member 1 (Rattus norvegicus, UniProt O35433). As to the kind of experiment: Antagonist activity at rat TRPV1 expressed in human HEK293 cells assessed as inhibition of capsaicin-induced influx by measuring intracellular calcium accumulation by fura-2 dye based fluorimetric assay. The data set is classed as cell-based.
Sequence of Transient receptor potential cation channel subfamily V member 1 (O35433 whole entry): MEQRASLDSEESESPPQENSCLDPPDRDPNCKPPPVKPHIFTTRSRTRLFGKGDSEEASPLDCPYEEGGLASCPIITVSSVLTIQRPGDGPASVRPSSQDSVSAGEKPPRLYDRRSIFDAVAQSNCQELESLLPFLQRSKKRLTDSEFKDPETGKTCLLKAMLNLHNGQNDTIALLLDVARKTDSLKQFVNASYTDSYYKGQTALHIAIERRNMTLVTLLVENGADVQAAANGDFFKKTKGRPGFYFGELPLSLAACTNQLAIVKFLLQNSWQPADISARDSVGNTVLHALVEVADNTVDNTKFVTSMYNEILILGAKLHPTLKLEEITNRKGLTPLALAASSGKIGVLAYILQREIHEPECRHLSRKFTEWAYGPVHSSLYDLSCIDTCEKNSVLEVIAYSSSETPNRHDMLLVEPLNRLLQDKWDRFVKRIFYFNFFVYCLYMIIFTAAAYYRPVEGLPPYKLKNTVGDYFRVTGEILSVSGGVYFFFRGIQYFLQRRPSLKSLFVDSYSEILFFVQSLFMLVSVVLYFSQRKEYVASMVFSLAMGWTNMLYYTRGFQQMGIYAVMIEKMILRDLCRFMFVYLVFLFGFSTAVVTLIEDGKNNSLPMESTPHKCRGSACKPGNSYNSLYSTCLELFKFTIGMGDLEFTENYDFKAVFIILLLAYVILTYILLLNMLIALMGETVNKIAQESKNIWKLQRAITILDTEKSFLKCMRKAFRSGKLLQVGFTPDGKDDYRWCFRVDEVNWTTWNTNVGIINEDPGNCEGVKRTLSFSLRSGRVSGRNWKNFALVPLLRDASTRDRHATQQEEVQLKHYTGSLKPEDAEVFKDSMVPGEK

Data set [2] can be described thus: Drug uptake in iv dosed Sprague-Dawley rat brain medulla oblongata assessed as high radioactivity in medulla oblongata and measured upto 60 mins by PET imaging analysis. The format is ADME, organism-based. The note with it: in vivo, 1 h.
A short description of data set [3]: Drug uptake in iv dosed Sprague-Dawley rat brain assessed as high radioactivity in brain cortical area and measured upto 60 mins by PET imaging analysis. The data set is classed as ADME, organism-based. The note with it: in vivo, 1 h.
A short description of data set [4]: Drug uptake in iv dosed Sprague-Dawley rat brain thalamus assessed as high radioactivity and measured upto 60 mins by PET imaging analysis. The format is ADME, organism-based. As to conditions: in vivo, 1 h; call rule not given here.
A short description of data set [5]: Drug uptake in iv dosed Sprague-Dawley rat brain hypothalamus assessed as high radioactivity in hypothalamus and measured upto 60 mins by PET imaging analysis. The data set is classed as ADME, organism-based. The note with it: in vivo, 1 h.
Data set [6] can be described thus: Drug uptake in iv dosed Sprague-Dawley rat brain striatum assessed as high radioactivity in striatum and measured upto 60 mins by PET imaging analysis. The note with it: in vivo, 1 h. The data set is classed as ADME, organism-based.
The nature of data set [7]: Drug uptake in iv dosed Sprague-Dawley rat liver assessed as high radioactivity in liver and measured upto 60 mins by PET imaging analysis. The format is ADME, organism-based. The note with it: in vivo, 1 h.
A short description of data set [8]: Drug uptake in iv dosed Sprague-Dawley rat brain cerebellum assessed as high radioactivity in brain cerebellum and measured upto 60 mins by PET imaging analysis. The note with it: in vivo, 1 h. The format is ADME, organism-based.
Data set [9] is described as follows: Drug uptake in iv dosed Sprague-Dawley rat urinary bladder assessed as high radioactivity in urinary bladder and measured upto 60 mins by PET imaging analysis. The format is ADME, organism-based. The note with it: in vivo, 1 h.
The nature of data set [10]: Drug uptake in iv dosed Sprague-Dawley rat gastrointestinal tract assessed as high radioactivity in gastrointestinal tract and measured upto 60 mins by PET imaging analysis. The data set is classed as ADME, organism-based. The note with it: in vivo, 1 h.
The nature of data set [11]: Drug uptake in iv dosed Sprague-Dawley rat skin assessed as high radioactivity in body surface and measured upto 60 mins by PET imaging analysis. The note with it: in vivo, 1 h. The format is ADME, organism-based, Skin of body.

On to `CN(C(=O)/C=C/c1ccc(Cl)cc1)c1cccc(OCCCF)c1`, for which the IC50 (usually the point on the concentration scale where inhibition reaches its midpoint) in data set [1] amounted to 1100 nM.
Regarding `CN(C(=O)/C=C/c1ccc(Cl)cc1)c1cccc(OCCC[18F])c1`, the Drug uptake result in data set [2], in data set [3], in [4], in data set [5] and in [6] was “Active” in each case.
As for `COc1cccc(N(C)C(=O)/C=C/c2ccc(Cl)cc2)c1`, the IC50 in [1] was determined as 1300 nM.
Consider `CN(C(=O)/C=C/c1ccc(Cl)cc1)c1cccc(OCCF)c1`, for which the IC50 in data set [1] stood at 4200 nM.
As for `CN(C(=O)/C=C/c1ccc(Cl)cc1)c1cccc(O[11CH3])c1`, the Drug uptake result in data set [2], in data set [7], in data set [8], in [9], in data set [3] and in data set [4] was “Active” throughout. Moreover, the Drug uptake result in data set [5], in data set [10], in data set [6] and in data set [11] was “Active” in each case.
As for `COc1cccc(NC(=O)/C=C/c2ccc(Cl)cc2)c1`, in data set [1], the IC50 amounted to 3700 nM.
